The term Kd denotes a measure of binding affinity in units of concentration.

The structures appear in SMILES notation. Where two headings read alike, the source gives them in different places. Where a SMILES comes first, the peptide text is derived from it. [ ]: non-standard residue; d: D form. ξ: configuration not given here. Phe(4-NO2) = N[C@@H](Cc1ccc([N+](=O)[O-])cc1)C(=O)O; ξAla(4-thiazolyl) = NC(Cc1cscn1)C(=O)O; pS = N[C@@H](COP(=O)(O)O)C(=O)O; β3hS = N[C@@H](CO)CC(=O)O; Nva = CCC[C@H](N)C(=O)O; ξβ3hS = NC(CO)CC(=O)O; βAla = NCCC(=O)O

Here are results for two compounds from publication PMC9667936, “Functional mapping of the 14-3-3 hub protein as a guide to design 14-3-3 molecular glues” (Chemical Science, 2022).

For this test, the target named is T1, 14-3-3γ (Homo sapiens, UniProt P61981).
T1 construct: made in house; host or cells: E. coli NiCo21 (DE3)
T1 sequence (P61981 1-247): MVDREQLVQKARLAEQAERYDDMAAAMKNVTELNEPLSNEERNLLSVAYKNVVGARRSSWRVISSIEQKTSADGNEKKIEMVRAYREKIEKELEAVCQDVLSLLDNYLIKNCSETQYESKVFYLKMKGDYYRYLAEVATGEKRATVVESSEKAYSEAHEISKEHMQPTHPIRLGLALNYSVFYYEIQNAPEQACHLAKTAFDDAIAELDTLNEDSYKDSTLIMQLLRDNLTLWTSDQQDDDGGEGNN
Kind of test: Isothermal titration calorimetry (ITC) of 14-3-3 binding to peptide. To be noted: for ΔG / Kd / ΔH / -TΔS / ΔH (ITC) / -TΔS (ITC) / ΔG (ITC) / KD (ITC): 25 °C; for Kd: Table S6 (unit as in Table S5). As to the method: 14-3-3γ protein expression (FP/ITC experiments)
A pPROEX HTb expression vector encoding the human 14-3-3 protein gamma (14-3-3γ) with an N-terminal his6-tag was transformed by heat shock into NiCo21 (DE3) competent cells. Single colonies were cultured in 50 mL LB medium (100 µg/mL ampicillin). After overnight incubation at 37 °C, cultures were transferred to 2 L TB media (100 µg/mL ampicillin, 1 mM MgCl2) and incubated at 37 °C until an OD600 nm of 0.8-1.2 was reached. Protein expression was then induced with 0.4 mM isopropyl-β-d-thiogalactoside (IPTG), and cultures were incubated overnight at 18 °C. Cells were harvested by centrifugation (8600 rpm, 20 minutes, 4 °C) and resuspended in lysis buffer (50 mM Hepes, pH 8.0, 300 mM NaCl, 12.5 mM imidazole, 5 mM MgCl2, 2 mM βME) containing cOmplete™ EDTA-free Protease Inhibitor Cocktail tablets (1 tablet/100 ml lysate) and benzonase (1 µl/100 ml). After lysis using a C3 Emulsiflex-C3 homogenizer (Avestin), the cell lysate was cleared by centrifugation (20000 rpm, 30 minutes, 4 °C) and purified using Ni2+-affinity chromatography (Ni-NTA superflow cartridges, Qiagen).
Typically two 5 mL columns (flow 5 mL/min) were used for a 2 L culture in which the lysate was loaded on the column washed with 10 CV wash buffer (50 mM Hepes, pH 8.0, 300 mM NaCl, 25 mM imidazole, 2 mM βME) and eluted in several fractions (2-4 CV) of elution buffer (50 mM Hepes, pH 8.0, 300 mM NaCl, 250 mM imidazole, 2 mM βME). Fractions containing the 14-3-3 protein were combined and dialyzed into 25 mM HEPES pH 8.0, 100 mM NaCl, 10 mM MgCl2, 500 µM TCEP. […]
The peptides 1 and 2a-d were synthesized on 50 µmol scale on a Rink amide MBHA resin (Novabiochem, 0.52 mmol/g loading) using an automated Intavis MultiPep RSi peptide synthesizer.
Deprotection was performed twice per cycle with 20% v/v piperidine in DMF for 8 minutes. Fmoc-protected amino acids were mixed in 5 equivalents of HBTU and 9 equivalents of DIPEA in DMF, and coupled to the resin. With the exception of phosphoserine, which was coupled once for 60 minutes, all amino acids were coupled to the resin twice for 30 minutes. Capping of unreacted amino acids was performed with a mixture of acetic anhydride/pyridine/DMF (1:1:3) for 5 minutes. βAla was incorporated as a spacer between the sequence and Lys(Alloc), to which a FITC fluorophore will be coupled for fluorescence anisotropy studies.
The peptides 1 and 2e-i were synthesized manually on a 50 µmol scale using Rink amide MBHA resin (Novabiochem, 0.52 mmol/g loading) via Fmoc based solid phase peptide synthesis. […]
(lex: 485 ± 20 nm; lem: 535 ± 25 nm; mirror: Dichroic 510; flashes: 20; integration time: 50 ms; settle time:
0 ms; gain: optimal; and Z-position: calculated from well). […]
Data was obtained and averaged based on two
To determine the cooperativity parameters from the 2D-titration of 14-3-3/ChREBP/2d (as described above) we have used the general framework for straightforward model construction of multi-component thermodynamic equilibrium systems as described by Geertjens et al. (2021).10 This general platform generates a model to describe multi-component equilibrium systems when given a system description.
In our case we gave the following system description: […]
α (with 95% confidence interval) and the error-landscape of the determine parameters.
Fluorescence anisotropy (FA) – Selectivity study: Peptides representing 14-3-3 binding partners (including ChREBP) were titrated in a 2-fold dilution series (starting at 100 µM) to 20 nM of fluorescein-labeled peptide 2d in presence and absence of, respectively, 2 µM 14-3-3γ in FA buffer (10 mM HEPES pH 7.4, 150 mM NaCl, 0.1% (v/v) Tween20, 0.1% (w/v) BSA). Dilution series were made in a polystyrene (non-binding) low-volume Corning Black Round Bottom 384-well plates (Corning 4514 or 4511).
Measurements were performed directly after plate preparation, using a Tecan Infinite F500 plate reader at room temperature (lex: 485 ± 20 nm; lem: 535 ± 25 nm; mirror: Dichroic 510; flashes: 20; integration […]
Background: ITC needs no label: the signal is the heat of the interaction.

The mark [1] stands for this setting: Table S6 (unit given in Fig. 4 legend), ITC, average of two runs.
Setting [2] is: Table S6, ITC, average of two runs.

For `CCC[C@H](NC(=O)[C@H](N)CCCCN)C(=O)N[C@@H](Cc1ccc([N+](=O)[O-])cc1)C(=O)NC(Cc1cscn1)C(=O)N[C@@H](COP(=O)(O)O)C(=O)N[C@@H](Cc1ccc([N+](=O)[O-])cc1)C(=O)N[C@@H](CO)CC(=O)NCCC(=O)N[C@@H](C)C(=O)N[C@@H](CCCCN)C(N)=O` (stereo partly drawn) [5c] (H-[dK][Nva][Phe(4-NO2)][ξAla(4-thiazolyl)][pS][Phe(4-NO2)][β3hS][βAla]AK-NH2; N-terminus and C-terminus assumed), the ΔG is on record as -7.4 kcal/mol (Table S5, ITC, mean of n = 2); -7.4 kcal/mol (Table S5, ITC, replicate 1); -7.3 kcal/mol (Table S5, ITC, replicate 2); -7,38 kcal mol^-1 under setting [2]; -7,446 kcal mol^-1 (Table S6, ITC, run 1); -7,317 kcal mol^-1 (Table S6, ITC, run 2). Besides, the “ΔΔG to 1” value runs as follows: (Table S5, ΔG minus ΔG of peptide 1, ITC, first unlabelled line (replicate 1)) 2.6 kcal/mol; (Table S5, ΔG minus ΔG of peptide 1, ITC, second unlabelled line (replicate 2)) 2.7 kcal/mol; (Table S5, ΔG of peptide minus ΔG of peptide 1, ITC, mean of n = 2) 2.6 kcal/mol. Further, the Kd was 3910 nM (ITC, average of two runs, read-out: Kd); 3,48E-06 M (ITC, run 1); 4,33E-06 M (ITC, run 2). Besides, the ΔH reads like this: under setting [1], -2,89 kcal mol^-1; (Table S6, ITC, run 1) -2,242 kcal mol^-1; (Table S6, ITC, run 2) -3,539 kcal mol^-1. The “-TΔS” value under setting [2] is reported as -4,49 kcal mol^-1; the “-TΔS” value (Table S6, ITC, run 1) is listed as -5,204 kcal mol^-1; the “-TΔS” value (Table S6, ITC, run 2) is -3,779 kcal mol^-1.

Take `CCC[C@H](NC(=O)[C@H](N)CCCCN)C(=O)N[C@@H](Cc1ccc([N+](=O)[O-])cc1)C(=O)NC(Cc1cscn1)C(=O)N[C@@H](COP(=O)(O)O)C(=O)N[C@@H](Cc1ccc([N+](=O)[O-])cc1)C(=O)NC(CO)CC(=O)NCCC(=O)N[C@@H](Cc1ccc([N+](=O)[O-])cc1)C(=O)N[C@@H](CCCCN)C(N)=O` (stereo partly drawn) [compound 1] (H-[dK][Nva][Phe(4-NO2)][ξAla(4-thiazolyl)][pS][Phe(4-NO2)][ξβ3hS][βAla][Phe(4-NO2)]K-NH2): the “free binding energy ΔG (ITC)” value (ITC) was -10.0 kcal/mol. The “ΔH (ITC)” value (Table S1 (unit given in Fig. 4 legend), ITC, mean of n = 2) was -10.7 kcal/mol; the “ΔH (ITC)” value (Table S1, ITC, replicate 1) is -11.0 kcal/mol; the “ΔH (ITC)” value (Table S1, ITC, replicate 2) was -10.5 kcal/mol. The “-TΔS (ITC)” value runs as follows: (Table S1, ITC, mean of n = 2) 0.7 kcal/mol; (Table S1, ITC, replicate 1) 0.9 kcal/mol; (Table S1, ITC, replicate 2) 0.4 kcal/mol. Besides, the “ΔG (ITC)” value (Table S1, ITC, mean of n = 2) is -10.0 kcal/mol; the “ΔG (ITC)” value (Table S1, ITC, replicate 1) is -10.0 kcal/mol; the “ΔG (ITC)” value (Table S1, ITC, replicate 2) is -10.0 kcal/mol. The “KD (ITC)” value (Table S1, ITC, replicate 1) was 44.7 nM and the “KD (ITC)” value (Table S1, ITC, replicate 2) was 45.3 nM. Besides, the ΔG (Table S5, ITC, mean of n = 2) is recorded as -10.0 kcal/mol; the ΔG (Table S5, ITC, replicate 1) is -10.0 kcal/mol; the ΔG (Table S5, ITC, replicate 2) is reported as -10.0 kcal/mol; the ΔG under setting [2] was -10,03 kcal mol^-1; the ΔG (Table S6, ITC, run 1) is given as -10,03 kcal mol^-1; the ΔG (Table S6, ITC, run 2) is -10,02 kcal mol^-1. The ΔH is, setting by setting: under setting [1], -10,71 kcal mol^-1; (Table S6, ITC, run 1) -10,96 kcal mol^-1; (Table S6, ITC, run 2) -10,45 kcal mol^-1. Also, the “-TΔS” value is listed as 0,68 kcal mol^-1 under setting [2]; 0,933 kcal mol^-1 (Table S6, ITC, run 1); 0,426 kcal mol^-1 (Table S6, ITC, run 2).
